Measured values from patent US6770299B1, “Lipid matrix-drug conjugates particle for controlled release of active ingredient” (PharmaSol GmbH, priority 1999, dated 2004).

Experiments:
[1] = tested on: HL 60 tumor cells (human myeloid leukemia cell line); experiment: Differentiation of HL 60 tumor cells, NBT reduction; format: cell-based; conditions: HL 60 cells, free tributyrin dissolved in ethanol
Procedure: The effectiveness of tributyrin drug vehicles was measured in HL 60 tumor cells (human myeloid leukemia cell line). HL 60 cells are a sensitive indicator of the effect of tributyrin. It brings about a differentiation of the tumor cells to granulocyte-like cells. The latter have the property of reducing NBT (nitro-blue tetrazolium) to a blue dye (H. P. Koeffler et al. Blood 62 1 (983) 709-721). Tributyrin-compritol particles, consisting of equal parts of tributyrin and compritol (glycerine tribehenate) were prepared as in Example 1. The overall lipid concentration was 5%, the Poloxamer 188 concentration likewise 5%. The particle size was 147 nm (PCS diameter), the polydispersion index 0.321. The differentiation effect was compared with that of free tributyrin, dissolved in ethanol. […] An adequate quantity of tributyrin-compritol nanoparticle dispersion was, like the corresponding quantities of surfactant solution and pure compritol particle dispersion, added to HL 60 cells and the NBT reduction ascertained after 6 days' incubation time at 37° C. and 5% carbon dioxide content.

solid tumors = conditions: oral preparation, phase 1 study; cited from earlier work

CCCC(=O)OCC(COC(=O)CCC)OC(=O)CCC [tributyrin, 1,2,3 butyric acid glycerol ester]
effective 50% dosage (ED 50%), differentiation effect [1]: 130 µM | tumor regression (solid tumors): No significant tumor regression
